Test results reported in ChEMBL document CHEMBL5120847, “Enceleamycins A-C, Furo-Naphthoquinones from Amycolatopsis sp. MCC0218: Isolation, Structure Elucidation, and Antimicrobial Activity” (2022).
Values after ≈ are worked out from the molar mass of the structure shown.

The molecules below were run on Bacillus cereus (assay: Antibacterial activity against Bacillus cereus ATCC 11778 assessed as inhibition of visible bacterial growth incubated for 18 hrs by CLSI protocol based assay).
Type: functional
`CC1(C)S[C@@H]2[C@H](NC(=O)[C@H](N)c3ccccc3)C(=O)N2[C@H]1C(=O)O` [AMPICILLIN] was tested, and the MIC was 16 µg/mL (≈ 45.8 µM).
`NC[C@H]1O[C@H](O[C@H]2[C@H](O)[C@@H](O[C@H]3O[C@H](CO)[C@@H](O)[C@H](N)[C@H]3O)[C@H](N)C[C@@H]2N)[C@H](O)[C@@H](O)[C@@H]1O` [KANAMYCIN] gave an MIC of 2 µg/mL (≈ 4.13 µM).
Molecule `C[C@H]1O[C@@H]2C3=C(O[C@]2(C)[C@@]1(O)C=O)C(=O)c1c(O)cccc1C3=O` has an MIC of 16 µg/mL (≈ 48.4 µM).

The molecules below were run on Staphylococcus aureus (assay: Antibacterial activity against methicillin-resistant Staphylococcus aureus clinical isolate 10B assessed as inhibition of visible bacterial growth incubated for 18 hrs by CLSI protocol based assay).
Type: functional
In the case of `CC1(C)S[C@@H]2[C@H](NC(=O)[C@H](N)c3ccccc3)C(=O)N2[C@H]1C(=O)O` [AMPICILLIN], the MIC is reported as 4 µg/mL (≈ 11.4 µM).
With `NC[C@H]1O[C@H](O[C@H]2[C@H](O)[C@@H](O[C@H]3O[C@H](CO)[C@@H](O)[C@H](N)[C@H]3O)[C@H](N)C[C@@H]2N)[C@H](O)[C@@H](O)[C@@H]1O` [KANAMYCIN] the MIC was greater than 128 µg/mL.
`C[C@H]1O[C@@H]2C3=C(O[C@]2(C)[C@@]1(O)C=O)C(=O)c1c(O)cccc1C3=O` was tested, and the MIC was 8 µg/mL (≈ 24.2 µM).

The molecules below were run on Staphylococcus aureus (assay: Antibacterial activity against methicillin-resistant Staphylococcus aureus clinical isolate 3B assessed as inhibition of visible bacterial growth incubated for 18 hrs by CLSI protocol based assay).
Type: functional
Molecule `CC1(C)S[C@@H]2[C@H](NC(=O)[C@H](N)c3ccccc3)C(=O)N2[C@H]1C(=O)O` [AMPICILLIN] has an MIC of 8 µg/mL (≈ 22.9 µM).
Molecule `NC[C@H]1O[C@H](O[C@H]2[C@H](O)[C@@H](O[C@H]3O[C@H](CO)[C@@H](O)[C@H](N)[C@H]3O)[C@H](N)C[C@@H]2N)[C@H](O)[C@@H](O)[C@@H]1O` [KANAMYCIN] has an MIC greater than 128 µg/mL.
Molecule `C[C@H]1O[C@@H]2C3=C(O[C@]2(C)[C@@]1(O)C=O)C(=O)c1c(O)cccc1C3=O` has an MIC of 16 µg/mL (≈ 48.4 µM).

Each molecule was assayed on Staphylococcus epidermidis (assay: Antibacterial activity against Staphylococcus epidermidis ATCC 12228 assessed as inhibition of visible bacterial growth incubated for 18 hrs by CLSI protocol based assay).
Type: functional
`CC1(C)S[C@@H]2[C@H](NC(=O)[C@H](N)c3ccccc3)C(=O)N2[C@H]1C(=O)O` [AMPICILLIN] was tested, and the MIC was 1 µg/mL (≈ 2.86 µM).
With `NC[C@H]1O[C@H](O[C@H]2[C@H](O)[C@@H](O[C@H]3O[C@H](CO)[C@@H](O)[C@H](N)[C@H]3O)[C@H](N)C[C@@H]2N)[C@H](O)[C@@H](O)[C@@H]1O` [KANAMYCIN] the MIC was 1 µg/mL (≈ 2.06 µM).
For `C[C@H]1O[C@@H]2C3=C(O[C@]2(C)[C@@]1(O)C=O)C(=O)c1c(O)cccc1C3=O`, the MIC was 8 µg/mL (≈ 24.2 µM).

The molecules below were run on Bacillus subtilis (assay: Antibacterial activity against Bacillus subtilis ATCC 6633 assessed as inhibition of visible bacterial growth incubated for 18 hrs by CLSI protocol based assay).
Type: functional
`CC1(C)S[C@@H]2[C@H](NC(=O)[C@H](N)c3ccccc3)C(=O)N2[C@H]1C(=O)O` [AMPICILLIN] gave an MIC of 0.03 µg/mL (≈ 0.0859 µM).
`NC[C@H]1O[C@H](O[C@H]2[C@H](O)[C@@H](O[C@H]3O[C@H](CO)[C@@H](O)[C@H](N)[C@H]3O)[C@H](N)C[C@@H]2N)[C@H](O)[C@@H](O)[C@@H]1O` [KANAMYCIN] showed an MIC of 0.5 µg/mL (≈ 1.03 µM).
`C[C@H]1O[C@@H]2C3=C(O[C@]2(C)[C@@]1(O)C=O)C(=O)c1c(O)cccc1C3=O` was tested, and the MIC was 16 µg/mL (≈ 48.4 µM).

The molecules below were run on Escherichia coli (assay: Antibacterial activity against Escherichia coli ATCC 8739 assessed as inhibition of visible bacterial growth incubated for 18 hrs by CLSI protocol based assay).
Type: functional
With `NC[C@H]1O[C@H](O[C@H]2[C@H](O)[C@@H](O[C@H]3O[C@H](CO)[C@@H](O)[C@H](N)[C@H]3O)[C@H](N)C[C@@H]2N)[C@H](O)[C@@H](O)[C@@H]1O` [KANAMYCIN] the MIC was 8 µg/mL (≈ 16.5 µM).
For `C[C@H]1O[C@@H]2C3=C(O[C@]2(C)[C@@]1(O)C=O)C(=O)c1c(O)cccc1C3=O`, the MIC was greater than 128 µg/mL.

Each molecule was assayed on Staphylococcus aureus (assay: Antibacterial activity against Staphylococcus aureus ATCC 9144 assessed as inhibition of visible bacterial growth incubated for 18 hrs by CLSI protocol based assay).
Type: functional
Molecule `CC1(C)S[C@@H]2[C@H](NC(=O)[C@H](N)c3ccccc3)C(=O)N2[C@H]1C(=O)O` [AMPICILLIN] has an MIC of 0.03 µg/mL (≈ 0.0859 µM).
Molecule `NC[C@H]1O[C@H](O[C@H]2[C@H](O)[C@@H](O[C@H]3O[C@H](CO)[C@@H](O)[C@H](N)[C@H]3O)[C@H](N)C[C@@H]2N)[C@H](O)[C@@H](O)[C@@H]1O` [KANAMYCIN] has an MIC of 8 µg/mL (≈ 16.5 µM).
Molecule `C[C@H]1O[C@@H]2C3=C(O[C@]2(C)[C@@]1(O)C=O)C(=O)c1c(O)cccc1C3=O` has an MIC of 8 µg/mL (≈ 24.2 µM).

Each molecule was assayed on Mycolicibacterium smegmatis (assay: Antibacterial activity against Mycobacterium smegmatis ATCC 607 assessed as inhibition of visible bacterial growth incubated for 48 hrs by CLSI protocol based assay).
Type: functional
`CC1(C)S[C@@H]2[C@H](NC(=O)[C@H](N)c3ccccc3)C(=O)N2[C@H]1C(=O)O` [AMPICILLIN] gave an MIC of 64 µg/mL (≈ 183 µM).
For `NC[C@H]1O[C@H](O[C@H]2[C@H](O)[C@@H](O[C@H]3O[C@H](CO)[C@@H](O)[C@H](N)[C@H]3O)[C@H](N)C[C@@H]2N)[C@H](O)[C@@H](O)[C@@H]1O` [KANAMYCIN], the MIC was 0.25 µg/mL (≈ 0.516 µM).
Work on `C[C@H]1O[C@@H]2C3=C(O[C@]2(C)[C@@]1(O)C=O)C(=O)c1c(O)cccc1C3=O` yielded an MIC of 64 µg/mL (≈ 194 µM).

Each molecule was assayed on Pseudomonas aeruginosa (assay: Antibacterial activity against Pseudomonas aeruginosa ATCC 9027 assessed as inhibition of visible bacterial growth incubated for 18 hrs by CLSI protocol based assay).
Type: functional
`CC1(C)S[C@@H]2[C@H](NC(=O)[C@H](N)c3ccccc3)C(=O)N2[C@H]1C(=O)O` [AMPICILLIN] gave an MIC of 2 µg/mL (≈ 5.72 µM).
For `NC[C@H]1O[C@H](O[C@H]2[C@H](O)[C@@H](O[C@H]3O[C@H](CO)[C@@H](O)[C@H](N)[C@H]3O)[C@H](N)C[C@@H]2N)[C@H](O)[C@@H](O)[C@@H]1O` [KANAMYCIN], the MIC was 8 µg/mL (≈ 16.5 µM).
For `C[C@H]1O[C@@H]2C3=C(O[C@]2(C)[C@@]1(O)C=O)C(=O)c1c(O)cccc1C3=O`, the MIC was greater than 128 µg/mL.

What follows are molecules tested on Listeria monocytogenes (assay: Antibacterial activity against Listeria monocytogenes ATCC19111 assessed as inhibition of visible bacterial growth incubated for 18 hrs by CLSI protocol based assay).
Type: functional
In the case of `CC1(C)S[C@@H]2[C@H](NC(=O)[C@H](N)c3ccccc3)C(=O)N2[C@H]1C(=O)O` [AMPICILLIN], the MIC is reported as 0.03 µg/mL (≈ 0.0859 µM).
For `NC[C@H]1O[C@H](O[C@H]2[C@H](O)[C@@H](O[C@H]3O[C@H](CO)[C@@H](O)[C@H](N)[C@H]3O)[C@H](N)C[C@@H]2N)[C@H](O)[C@@H](O)[C@@H]1O` [KANAMYCIN], the MIC was 1 µg/mL (≈ 2.06 µM).
`C[C@H]1O[C@@H]2C3=C(O[C@]2(C)[C@@]1(O)C=O)C(=O)c1c(O)cccc1C3=O` showed an MIC of 8 µg/mL (≈ 24.2 µM).

What follows are molecules tested on Staphylococcus aureus (assay: Antibacterial activity against methicillin-resistant Staphylococcus aureus clinical isolate 6B assessed as inhibition of visible bacterial growth incubated for 18 hrs by CLSI protocol based assay).
Type: functional
`CC1(C)S[C@@H]2[C@H](NC(=O)[C@H](N)c3ccccc3)C(=O)N2[C@H]1C(=O)O` [AMPICILLIN] showed an MIC of 8 µg/mL (≈ 22.9 µM).
`NC[C@H]1O[C@H](O[C@H]2[C@H](O)[C@@H](O[C@H]3O[C@H](CO)[C@@H](O)[C@H](N)[C@H]3O)[C@H](N)C[C@@H]2N)[C@H](O)[C@@H](O)[C@@H]1O` [KANAMYCIN] gave an MIC greater than 128 µg/mL.
In the case of `C[C@H]1O[C@@H]2C3=C(O[C@]2(C)[C@@]1(O)C=O)C(=O)c1c(O)cccc1C3=O`, the MIC is reported as 8 µg/mL (≈ 24.2 µM).

These molecules were tested on Staphylococcus aureus (assay: Antibacterial activity against methicillin-resistant Staphylococcus aureus clinical isolate 9B assessed as inhibition of visible bacterial growth incubated for 18 hrs by CLSI protocol based assay).
Type: functional
`NC[C@H]1O[C@H](O[C@H]2[C@H](O)[C@@H](O[C@H]3O[C@H](CO)[C@@H](O)[C@H](N)[C@H]3O)[C@H](N)C[C@@H]2N)[C@H](O)[C@@H](O)[C@@H]1O` [KANAMYCIN] gave an MIC of 128 µg/mL (≈ 264 µM).
Molecule `C[C@H]1O[C@@H]2C3=C(O[C@]2(C)[C@@]1(O)C=O)C(=O)c1c(O)cccc1C3=O` has an MIC of 16 µg/mL (≈ 48.4 µM).

What follows are molecules tested on Micrococcus luteus (assay: Antibacterial activity against Micrococcus luteus ATCC 9341 assessed as inhibition of visible bacterial growth incubated for 18 hrs by CLSI protocol based assay).
Type: functional
`CC1(C)S[C@@H]2[C@H](NC(=O)[C@H](N)c3ccccc3)C(=O)N2[C@H]1C(=O)O` [AMPICILLIN] showed an MIC of 0.03 µg/mL (≈ 0.0859 µM).
`NC[C@H]1O[C@H](O[C@H]2[C@H](O)[C@@H](O[C@H]3O[C@H](CO)[C@@H](O)[C@H](N)[C@H]3O)[C@H](N)C[C@@H]2N)[C@H](O)[C@@H](O)[C@@H]1O` [KANAMYCIN] showed an MIC of 8 µg/mL (≈ 16.5 µM).
Work on `C[C@H]1O[C@@H]2C3=C(O[C@]2(C)[C@@]1(O)C=O)C(=O)c1c(O)cccc1C3=O` yielded an MIC of 32 µg/mL (≈ 96.9 µM).
